Experimental data published in patent publication US5401647A, “Method of preparing Limulus amoebocyte lysate” (Seikagaku Kogyo Kabushiki Kaisha (Seikagaku Corporation), priority 1990, dated 1995).

Target: T1, Limulus amoebocyte lysate factor G (Tachypleus tridentatus, UniProt Q27082)
T1 construct: Prepared from Japanese horseshoe crab, T. tridentatus; from tissue; host or cells: amoebocyte (hemocyte) lysate of the Japanese horseshoe crab T. tridentatus, factor G fraction
T1 sequence (Q27082 20-673): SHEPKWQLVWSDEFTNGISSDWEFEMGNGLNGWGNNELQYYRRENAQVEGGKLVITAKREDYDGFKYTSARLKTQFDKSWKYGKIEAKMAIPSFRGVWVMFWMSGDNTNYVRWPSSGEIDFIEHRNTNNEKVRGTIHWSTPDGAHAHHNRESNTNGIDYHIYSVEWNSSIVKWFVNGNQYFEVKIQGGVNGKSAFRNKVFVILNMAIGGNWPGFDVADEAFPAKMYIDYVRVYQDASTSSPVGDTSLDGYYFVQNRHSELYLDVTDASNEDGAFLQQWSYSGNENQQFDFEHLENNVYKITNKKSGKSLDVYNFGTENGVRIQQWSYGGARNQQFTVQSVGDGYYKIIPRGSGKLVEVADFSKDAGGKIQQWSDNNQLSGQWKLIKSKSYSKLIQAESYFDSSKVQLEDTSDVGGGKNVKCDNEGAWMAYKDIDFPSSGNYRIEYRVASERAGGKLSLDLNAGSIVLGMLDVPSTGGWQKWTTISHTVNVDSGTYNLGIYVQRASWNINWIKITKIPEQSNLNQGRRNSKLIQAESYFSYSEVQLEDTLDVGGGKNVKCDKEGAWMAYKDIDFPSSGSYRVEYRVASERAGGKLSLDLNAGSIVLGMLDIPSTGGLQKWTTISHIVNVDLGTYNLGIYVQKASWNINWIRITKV
T1 sequence (Q27083 32-309 partner): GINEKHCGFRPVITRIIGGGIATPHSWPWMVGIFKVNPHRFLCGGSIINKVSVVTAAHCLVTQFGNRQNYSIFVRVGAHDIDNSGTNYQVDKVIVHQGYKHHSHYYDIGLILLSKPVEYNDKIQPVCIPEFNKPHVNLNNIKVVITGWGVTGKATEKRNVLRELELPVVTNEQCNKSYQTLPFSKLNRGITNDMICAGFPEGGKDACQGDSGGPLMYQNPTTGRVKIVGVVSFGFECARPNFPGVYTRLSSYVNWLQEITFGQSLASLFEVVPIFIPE
Experiment: Activation titer determination method of factor G activation inhibiting substance (GI)
Format: biochemical, T. tridentatus
Conditions: 10 pg GA (No. 106); 37° C., 30 minutes; GI amount causing 100% inhibition of factor G activation = 100 units
Protocol: The factor G activation inhibitory titer was measured according to the following activation titer determination method of factor G activation inhibiting substance and represented as units per mg. Activation titer determination method of factor G activation inhibiting substance (hereinafter, sometimes abbreviated as GI)
A 200 μl portion of a reaction mixture has the following composition. […]
After incubating the above-described reaction mixture at 37° C. for 30 minutes, 0.5 ml each of 0.04% sodium nitrite (0.48M HCl solution), 0.3% ammonium sulfamate and 0.07% N-1-naphthylethylenediamine dihydrochloride was added to the reaction mixture to effect coloration by diazo-coupling. The amount of released pNA was determined by measuring an absorbance at 545 nm (A545). GI activity was calculated according to the following equation; [formula]
Under these conditions, the GI amount which causes 100% inhibition of an activation of factor G by GA is defined as 100 units.
(Note 1) Water-insoluble samples are dissolved in 0.3M NaOH and neutralized with an equal volume of 0.3M HCl.
(Note 2) GPC fractionation-purified product of the curdian sonicated product prepared in the above-described Preparation Example 5 (Table-2, No. 106, molecular weight 216,000).
(Note 3) Prepared from Japanese horseshoe crab, T. tridentatus according to the article [T. Obayasi et al., Clin. Chim. Acta., 149, 55-65 (1985)].

| Molecule | Factor G Activation Inhibitory Titer |
| --- | --- |
| OC[C@H]1O[C@@H](O[C@@H]2[C@@H](O)[C@H](O[C@H]3[C@H](O)[C@@H](CO)OC(O)[C@@H]3O)O[C@H](CO)[C@H]2O)[C@H](O)[C@@H](O)[C@@H]1O (some centres unmarked) [compound 6, Laminaritriose] | 4,670 unit/mg |
| OC[C@H]1O[C@@H](O[C@@H]2[C@@H](O)[C@H](O[C@@H]3[C@@H](O)[C@H](O[C@@H]4[C@@H](O)[C@H](O[C@@H]5[C@@H](O)[C@H](O[C@H]6[C@H](O)[C@@H](CO)OC(O)[C@@H]6O)O[C@H](CO)[C@H]5O)O[C@H](CO)[C@H]4O)O[C@H](CO)[C@H]3O)O[C@H](CO)[C@H]2O)[C@H](O)[C@@H](O)[C@@H]1O (some centres unmarked) [compound 9, Laminarihexaose] | 55,000 unit/mg |
| OC[C@H]1O[C@@H](O[C@H]2[C@H](O)[C@@H](CO)OC(O)[C@@H]2O)[C@H](O)[C@@H](O)[C@@H]1O (some centres unmarked) [compound 5, Laminaribiose] | 214 unit/mg |
| Partially carboxymethylated laminaran [compound 42] | 3,630,000 unit/mg |
| Partially methylated (1→3)-β-D-glucan [compound 43] | 93,300 unit/mg |
| Partially carboxymethylated (1→3)-β-D-glucan (DS = 0.03) GPC fraction 1 [compound 39] | 117,000 unit/mg |
| Partially carboxymethylated (1→3)-β-D-glucan (DS = 0.03) GPC fraction 3 [Sample No. 41] | 80,000 unit/mg |
| Partially sulfated laminaran [compound 44] | 117,000 unit/mg |
| OC[C@H]1OC(O)[C@H](O)[C@@H](O)[C@@H]1O (some centres unmarked) [compound 108, Glucose] | < 100 unit/mg |
| OC[C@H]1O[C@@H](O[C@@H]2[C@@H](O)[C@H](O[C@@H]3[C@@H](O)[C@H](O[C@@H]4[C@@H](O)[C@H](O[C@H]5[C@H](O)[C@@H](CO)OC(O)[C@@H]5O)O[C@H](CO)[C@H]4O)O[C@H](CO)[C@H]3O)O[C@H](CO)[C@H]2O)[C@H](O)[C@@H](O)[C@@H]1O (some centres unmarked) [compound 8, Laminaripentaose] | 39,800 unit/mg |
| OC[C@H]1O[C@@H](O[C@@H]2[C@@H](O)[C@H](O[C@@H]3[C@@H](O)[C@H](O[C@@H]4[C@@H](O)[C@H](O[C@@H]5[C@@H](O)[C@H](O[C@@H]6[C@@H](O)[C@H](O[C@H]7[C@H](O)[C@@H](CO)OC(O)[C@@H]7O)O[C@H](CO)[C@H]6O)O[C@H](CO)[C@H]5O)O[C@H](CO)[C@H]4O)O[C@H](CO)[C@H]3O)O[C@H](CO)[C@H]2O)[C@H](O)[C@@H](O)[C@@H]1O (some centres unmarked) [compound 10, Laminariheptaose] | 103,000 unit/mg |
| Partially carboxymethylated (1→3)-β-D-glucan (DS = 1.20) [compound 107] | < 100 unit/mg |
| OC[C@H]1O[C@@H](O[C@@H]2[C@@H](O)[C@H](O[C@@H]3[C@@H](O)[C@H](O[C@H]4[C@H](O)[C@@H](CO)OC(O)[C@@H]4O)O[C@H](CO)[C@H]3O)O[C@H](CO)[C@H]2O)[C@H](O)[C@@H](O)[C@@H]1O (some centres unmarked) [compound 7, Laminaritetraose] | 20,000 unit/mg |
| Partially carboxymethylated (1→3)-β-D-glucan (DS = 0.03) GPC fraction 2 [compound 40] | 91,200 unit/mg |
